Measurements: patent publication US9676760B2, “Fused heterocyclic compounds as ion channel modulators” (Gilead Sciences, Inc., priority 2011, dated 2017)

Columns and labels:
[1] = target: T1, wild-type human cardiac sodium channel, hNav1.5 (Homo sapiens, UniProt Q14524); experiment: Late INa screening assay (QPatch whole cell patch clamp, HEK293); assay type: cell-based; details: HEK293, percent block of late INa; compound at 1 μM; 10 μM Tefluthrin; read-out: Late INa 1 μM
Method in brief: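 HEK293 stably expressing hNav1.5 without beta subunits, recorded at 23-25° C. Late current was induced by 10 μM tefluthrin. Cells were depolarized from −120 mV to −20 mV for 250 ms at 0.1 Hz. Compounds were tested at 1 μM in extracellular solution, with baseline taken in 0Na-ECF; output is percent block of late INa.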

[2] = target: T1, wild-type human cardiac sodium channel, hNav1.5; experiment: Peak INa screening assay (tonic and use-dependent block); assay type: cell-based; details: compound at 1 μM
Method: The late sodium current (Late INa) and peak sodium current (Peak INa) assays are performed on an automated electrophysiology platform, QPatch 16× (Sophion Bioscience, Copenhagen, Denmark), which uses the whole cell patch clamp technique to measure currents through the cell membrane of up to 16 cells at a time. The assay uses an HEK293 (human embryonic kidney) cell line heterologously expressing the wild-type human cardiac sodium channel, hNav1.5, purchased from Millipore (Billerica, Mass.). No beta subunits were coexpressed with the Na channel alpha subunit. Cells are maintained with standard tissue culture procedures and stable channel expression is maintained with 400 μg/mL Geneticin in the culture medium. Cells isolated for use on QPatch are incubated for 5 minutes in Detachin 1×(Genlantis, San Diego, USA) at 37° C. to ensure that 80-90% of the cells are single and not part of a cell cluster. Experiments are carried out at 23-25° C.
For both the Late INa and Peak INa assays, series resistance compensation is set to 100% and series resistance and whole-cell compensation are performed automatically. Currents are digitized at 25 kHz and low-pass filtered at 12 kHz and 10 kHz for the late and peak INa assays, respectively. Currents through open sodium channels are automatically recorded and stored in the Sophion Bioscience Oracle database (Sophion Bioscience, Copenhagen, Denmark). Analysis is performed using QPatch Assay and database software and data are compiled in Excel.
Compound stocks are routinely made by the Gilead Sample Bank in plastic vials to 10 mM in dimethyl sulfoxide (DMSO). In some cases, when compounds are not soluble in DMSO, they are made in 100% ethanol. Stocks are sonicated as necessary. The extracellular solution for screening Late INa is composed of: 140 mM NaCl, 4 mM KCl, 1.8 mM CaCl2, 0.75 mM MgCl2 and 5 mM HEPES with pH adjusted to 7.4 using NaOH. The intracellular solution used to perfuse the inside of the cells for both the Late INa and Peak INa assays contains: 120 mM CsF, 20 mM CsCl, 5 mM EGTA, 5 mM HEPES and pH adjusted to 7.4 with CsOH. Compounds are diluted in extracellular solution to 1 μM in glass vials and then transferred to glass well plates before robotic addition to the cells. The 0 mM Na extracellular solution (0Na-ECF) used at the end of each experiment for the Late INa and Peak INa assays to measure baseline current contains: 140 mM N-methyl-D-glucamine; 4 mM KCl; 1.8 mM CaCl2; 0.75 mM MgCl2; 5 mM HEPES and pH was adjusted to 7.4 with HCl.
Compounds were also evaluated for their effect in several other assays, including their effect on Peak INa. […] Since the peak INa in the cells used herein can be very large, introducing artifacts in the recording, the concentration of Na^+ in the bath can be reduced to 20 mM and a nonpermeant cation added to compensate for the Na^+ that was removed to maintain the osmolarity and ionic strength of the solution (see solution details below).
A low stimulation frequency of 0.1 Hz was used to determine the effect of the test compound when the channel spent most of the time in the resting (closed) state and provides information about Tonic Block (TB). A higher stimulation frequency (3 Hz) was used to measure block of the channel when it spent more time in the activated and inactivated states and provided a measure of Use-Dependent Block (UDB). Use-dependent block refers to the accumulation of block with increased frequency of channel activation.

[3] = tonic block of peak INa, 0.1 Hz, read-out: Peak TB 1 μM
[4] = use-dependent block of peak INa, 3 Hz, read-out: Peak UDB 1 μM

T1 sequence (Q14524 whole entry): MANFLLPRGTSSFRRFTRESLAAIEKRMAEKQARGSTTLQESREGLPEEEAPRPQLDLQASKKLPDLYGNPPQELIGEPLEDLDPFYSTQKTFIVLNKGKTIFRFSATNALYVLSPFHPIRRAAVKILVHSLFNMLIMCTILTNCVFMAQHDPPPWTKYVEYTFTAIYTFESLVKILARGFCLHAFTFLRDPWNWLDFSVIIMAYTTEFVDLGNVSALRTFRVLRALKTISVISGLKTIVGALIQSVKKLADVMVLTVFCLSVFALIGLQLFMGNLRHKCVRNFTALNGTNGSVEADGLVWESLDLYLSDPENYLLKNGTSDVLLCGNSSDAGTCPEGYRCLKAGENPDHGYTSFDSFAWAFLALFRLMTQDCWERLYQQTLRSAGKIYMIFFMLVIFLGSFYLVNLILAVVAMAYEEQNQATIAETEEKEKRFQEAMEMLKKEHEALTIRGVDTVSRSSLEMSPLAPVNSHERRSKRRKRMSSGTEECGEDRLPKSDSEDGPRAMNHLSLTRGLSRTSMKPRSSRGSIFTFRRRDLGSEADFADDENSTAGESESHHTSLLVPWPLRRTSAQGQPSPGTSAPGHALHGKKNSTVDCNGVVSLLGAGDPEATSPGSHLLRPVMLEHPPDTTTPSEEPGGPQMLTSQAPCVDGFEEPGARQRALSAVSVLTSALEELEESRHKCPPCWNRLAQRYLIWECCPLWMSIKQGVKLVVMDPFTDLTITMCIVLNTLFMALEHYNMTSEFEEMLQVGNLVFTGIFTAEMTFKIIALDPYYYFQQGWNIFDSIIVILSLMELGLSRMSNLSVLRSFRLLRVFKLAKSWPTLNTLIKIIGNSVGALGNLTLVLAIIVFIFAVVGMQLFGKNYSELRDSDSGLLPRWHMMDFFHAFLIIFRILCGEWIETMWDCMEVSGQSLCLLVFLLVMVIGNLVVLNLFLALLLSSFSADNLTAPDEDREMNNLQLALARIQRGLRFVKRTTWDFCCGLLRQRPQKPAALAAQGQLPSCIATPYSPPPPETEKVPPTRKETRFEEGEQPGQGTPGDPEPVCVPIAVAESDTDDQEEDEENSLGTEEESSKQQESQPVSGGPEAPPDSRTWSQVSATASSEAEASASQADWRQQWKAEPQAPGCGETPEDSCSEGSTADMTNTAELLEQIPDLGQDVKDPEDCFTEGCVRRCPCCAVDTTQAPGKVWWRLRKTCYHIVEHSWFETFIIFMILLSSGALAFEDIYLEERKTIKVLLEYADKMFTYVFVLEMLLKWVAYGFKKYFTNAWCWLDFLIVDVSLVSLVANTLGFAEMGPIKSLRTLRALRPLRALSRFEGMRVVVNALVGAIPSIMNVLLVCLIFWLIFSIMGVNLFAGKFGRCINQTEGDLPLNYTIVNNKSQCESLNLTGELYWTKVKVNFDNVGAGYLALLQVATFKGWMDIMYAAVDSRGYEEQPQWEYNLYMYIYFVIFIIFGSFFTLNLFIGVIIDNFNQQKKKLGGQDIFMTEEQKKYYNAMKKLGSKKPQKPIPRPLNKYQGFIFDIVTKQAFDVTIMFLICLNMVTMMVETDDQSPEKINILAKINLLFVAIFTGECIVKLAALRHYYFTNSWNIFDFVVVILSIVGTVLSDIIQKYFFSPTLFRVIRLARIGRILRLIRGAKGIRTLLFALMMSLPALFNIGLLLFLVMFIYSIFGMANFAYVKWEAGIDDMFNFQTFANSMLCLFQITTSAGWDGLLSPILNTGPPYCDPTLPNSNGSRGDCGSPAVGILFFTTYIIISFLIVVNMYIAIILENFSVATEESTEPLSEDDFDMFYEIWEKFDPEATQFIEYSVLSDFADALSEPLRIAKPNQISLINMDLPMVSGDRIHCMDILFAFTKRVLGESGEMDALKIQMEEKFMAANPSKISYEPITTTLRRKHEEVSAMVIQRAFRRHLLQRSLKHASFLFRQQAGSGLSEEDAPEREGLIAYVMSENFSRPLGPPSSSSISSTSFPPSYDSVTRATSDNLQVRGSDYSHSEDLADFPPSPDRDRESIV

SMILES	inhibition at 1 µM [1] [%]	inhibition at 1 µM [2, 3] [%]	inhibition at 1 µM [2, 4] [%]
O=C1c2cc(-c3ccc(C(F)(F)F)cc3F)ccc2OCCN1Cc1ncccc1F [II-170, 7-(2-fluoro-4-(trifluoromethyl)phenyl)-4-((3-fluoropyridin-2-yl)methyl)-3,4-dihydrobenzo[f][1,4]oxazepin-5(2H)-one]	66	36	31
O=C1c2cc(-c3ccc(OC(F)(F)F)cc3)ccc2OCCN1Cc1ccc(F)cc1 [II-62, 4-(4-fluorobenzyl)-7-(4-(trifluoromethoxy)phenyl)-3,4-dihydrobenzo[f][1,4]oxazepin-5(2H)-one]	49	10	14
O=C1c2cc(-c3ccc(OC(F)(F)F)cc3)ccc2OCCN1Cc1ccccc1Cl [II-47, 4-(2-chlorobenzyl)-7-(4-(trifluoromethoxy)phenyl)-3,4-dihydrobenzo[f][1,4]oxazepin-5(2H)-one]	60	13	45
O=C1c2nc(-c3ccc(C(F)(F)F)cc3)ccc2OCCN1Cc1ccccc1 [XII-3, 4-benzyl-7-(4-(trifluoromethyl)phenyl)-3,4-dihydropyrido[2,3-f][1,4]oxazepin-5(2H)-one]	44	51	79
O=C1c2cc(Nc3ccc(C(F)(F)F)cc3)ccc2OCCN1Cc1ccccn1 [XIII-6, 4-(pyridin-2-ylmethyl)-7-(4-(trifluoromethyl)phenylamino)-3,4-dihydrobenzo[f][1,4]oxazepin-5(2H)-one]	60	8	8
O=C1c2cc(-c3ccc(OC(F)(F)F)cc3)ccc2OCCN1Cc1ccccn1 [II-72, 4-(pyridin-2-ylmethyl)-7-(4-(trifluoromethoxy)phenyl)-3,4-dihydrobenzo[f][1,4]oxazepin-5(2H)-one]	60	22	34
O=C1c2cc(-c3ccc(OC(F)(F)F)cc3)cc(F)c2OCCN1Cc1ccccc1 [II-165, 4-benzyl-9-fluoro-7-(4-(trifluoromethoxy)phenyl)-3,4-dihydrobenzo[f][1,4]oxazepin-5(2H)-one]	56	15	30
O=C1c2cc(-c3ccc(OC(F)(F)F)cc3)ccc2OCCN1Cc1ccn(C(F)F)n1 [II-147, 4-((1-(difluoromethyl)-1H-pyrazol-3-yl)methyl)-7-(4-(trifluoromethoxy)phenyl)-3,4-dihydrobenzo[f][1,4]oxazepin-5(2H)-one]	54	13	6
CCn1ccc(CN2CCOc3ccc(-c4ccc(OC(F)(F)F)cc4)cc3C2=O)n1 [II-153, 4-((1-ethyl-1H-pyrazol-3-yl)methyl)-7-(4-(trifluoromethoxy)phenyl)-3,4-dihydrobenzo[f][1,4]oxazepin-5(2H)-one]	56	15	13
O=C1c2cc(-c3ccc(C(F)F)cc3)ccc2OCCN1Cc1ccccn1 [II-157, 7-(4-(difluoromethyl)phenyl)-4-(pyridin-2-ylmethyl)-3,4-dihydrobenzo[f][1,4]oxazepin-5(2H)-one]	43	13	16
O=C1c2cc(-c3ccc(OC(F)(F)F)cc3)ccc2OCCN1Cc1cn2ccccc2n1 [II-189, 4-(imidazo[1,2-a]pyridin-2-ylmethyl)-7-(4-(trifluoromethoxy)phenyl)-3,4-dihydrobenzo[f][1,4]oxazepin-5(2H)-one]	53	23	28
O=C1c2cc(-c3ccc(Cl)c(F)c3)ccc2OCCN1Cc1ncccc1F [II-169, 7-(4-chloro-3-fluorophenyl)-4-((3-fluoropyridin-2-yl)methyl)-3,4-dihydrobenzo[f][1,4]oxazepin-5(2H)-one]	65	23	23
